Results published in US10047051B2, “Substituted pyridines and method of use” (AbbVie S.á{acute over (.)}r.l., priority 2015, dated 2018).

Key:
CFTR G551D mutant = target: T1, CFTR G551D mutant (Homo sapiens, UniProt P13569, G551D); assay: YFP-halide influx assay for the CFTR-G551D mutation (HEK293 cells); type: cell-based; settings: forskolin 10.67 μM
T1 construct: expressed in transfected cells; host or cells: HEK293 cells, reverse transfection with plasmids
Description: (§1) The YFP halide influx assay measured the functionality of the cystic fibrosis Transmembrane Conductance regulator (CFTR) channels. The assay was used to evaluate the capacity of compounds to increase the channel opening of existing mutant CFTR channels in the membrane. It makes use of the observation that the yellow fluorescent protein (YFP) variant YFP H148Q, I152L, F47L has its fluorescence substantially quenched by halide ions like Cl^− and I^− (Galietta, L. J. V., Haggie, P. M., Verkman, A. S., 2001. Green fluorescent protein-based halide indicators with improved chloride and iodide affinities. FEBS Lett. 499, 220-224. doi:10.1016/S0014-5793(01)02561-3).
For this purpose, HEK293-cells were seeded in 96 well plates. During seeding, the cells were reverse-transfected with plasmid vectors that direct the expression of the CFTR G551D mutant and of the YFP reporter. Cells were incubated at 37° C., 5% CO2 for 24 hours so as to allow for sufficient expression of the CFTR protein.
The I^−-induced quenching of fluorescence was recorded immediately after injection of I^− for 7 seconds. The capacity of a compound to increase the channel opening was directly correlated with the decrease in fluorescence, and was expressed as (1−(fluorescence after 7 seconds (F)/fluorescence before injection (F0))) and an EC50 was derived from a (1−F/F0) vs compound concentration plot.

CFTR ΔF508 mutant = target: T2, CFTR ΔF508 mutant (Homo sapiens, UniProt P13569, DEL508-508); assay: YFP-halide influx assay for the CFTR-ΔF508 mutation (CFBE41o- cells); type: cell-based; settings: forskolin 10.67 μM; for EC50: from (1−F/F0) vs concentration plot
T2 construct: expressed in transfected cells; host or cells: CFBE41o- cells, adenoviral transduction
Description: as §1, with “channels in the cystic fibrosis bronchial epithelium cell line CFBE41o-.” for “channels.”, “open probability” for “channel opening”, “existing” for “existing mutant”, “doi:10.1016/S0014-5793(01)02561-3; Nagai, T., Ibata, K., Park, E. S., Kubota, M., Mikoshiba, K., Miyawaki, A., 2002. A variant of yellow fluorescent protein with fast and efficient maturation for cell-biological applications. Nat. Biotechnol. 20, 87-90. doi: 10.1038/nbt0102-87).” for “doi:10.1016/S0014-5793(01)02561-3).”
For this purpose, CFBE41o-cells were seeded in 384 well plates (3000 CFBE cells/well). One day after seeding, the CFBE cells were transduced with adenoviral vectors that direct the expression of the CFTR ΔF508 mutant and of the YFP reporter. Cells were incubated at 27° C., 5% CO2 for 24 hours so as to allow for the proper folding and migration to the membrane of the CFTR channel or treated with a CFTR modulator during 24 hours at 37° C.
The I-induced quenching of fluorescence was recorded on an immediately after injection of iodide for 2 minutes on an FDSS/μCell (Hamamatsu). The capacity of a compound to increase the channel opening was directly correlated with the decrease in fluorescence, and was expressed as (1−(fluorescence after 36 seconds (F)/fluorescence before injection (F0))) and an EC50 was derived from a (1−F/F0) vs compound concentration plot.

T1 sequence (P13569 whole entry G551D): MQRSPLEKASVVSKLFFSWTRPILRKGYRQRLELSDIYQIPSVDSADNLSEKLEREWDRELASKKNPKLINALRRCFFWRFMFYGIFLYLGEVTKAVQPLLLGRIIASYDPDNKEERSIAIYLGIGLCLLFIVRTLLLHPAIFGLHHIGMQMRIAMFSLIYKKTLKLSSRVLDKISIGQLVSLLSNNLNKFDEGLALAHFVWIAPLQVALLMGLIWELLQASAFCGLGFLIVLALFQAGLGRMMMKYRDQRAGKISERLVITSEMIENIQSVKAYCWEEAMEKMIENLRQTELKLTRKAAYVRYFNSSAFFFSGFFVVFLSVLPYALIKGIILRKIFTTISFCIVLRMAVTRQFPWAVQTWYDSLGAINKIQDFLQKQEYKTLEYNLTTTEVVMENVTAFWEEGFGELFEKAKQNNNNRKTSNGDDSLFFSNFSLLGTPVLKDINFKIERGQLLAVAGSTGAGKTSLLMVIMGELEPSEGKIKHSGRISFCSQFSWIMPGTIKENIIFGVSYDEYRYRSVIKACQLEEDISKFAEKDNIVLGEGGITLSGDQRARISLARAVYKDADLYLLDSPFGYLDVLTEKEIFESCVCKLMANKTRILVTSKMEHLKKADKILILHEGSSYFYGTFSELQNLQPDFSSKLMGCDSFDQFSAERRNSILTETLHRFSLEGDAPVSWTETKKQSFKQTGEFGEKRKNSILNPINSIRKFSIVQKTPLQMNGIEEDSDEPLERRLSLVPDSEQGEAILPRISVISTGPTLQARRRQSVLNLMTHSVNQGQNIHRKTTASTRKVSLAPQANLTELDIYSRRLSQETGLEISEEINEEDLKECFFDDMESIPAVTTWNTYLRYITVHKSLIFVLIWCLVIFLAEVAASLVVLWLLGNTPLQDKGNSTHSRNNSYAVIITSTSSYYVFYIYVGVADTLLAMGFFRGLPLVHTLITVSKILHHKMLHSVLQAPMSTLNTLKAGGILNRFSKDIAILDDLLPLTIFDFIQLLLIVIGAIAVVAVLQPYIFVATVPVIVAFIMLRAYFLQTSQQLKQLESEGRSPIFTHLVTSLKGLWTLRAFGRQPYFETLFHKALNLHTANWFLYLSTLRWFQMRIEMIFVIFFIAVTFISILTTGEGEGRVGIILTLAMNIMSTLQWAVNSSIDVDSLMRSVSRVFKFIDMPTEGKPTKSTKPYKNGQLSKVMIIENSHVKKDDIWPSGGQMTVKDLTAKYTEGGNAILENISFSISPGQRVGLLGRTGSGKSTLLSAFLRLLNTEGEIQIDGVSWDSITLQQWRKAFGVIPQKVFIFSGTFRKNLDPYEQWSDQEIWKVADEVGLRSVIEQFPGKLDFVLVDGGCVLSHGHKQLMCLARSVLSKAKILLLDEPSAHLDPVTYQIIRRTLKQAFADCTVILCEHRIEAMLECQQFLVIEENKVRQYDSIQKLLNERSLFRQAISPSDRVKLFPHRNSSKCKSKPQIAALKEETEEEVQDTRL
T2 sequence (P13569 with tags, fused parts or gaps DEL508-508): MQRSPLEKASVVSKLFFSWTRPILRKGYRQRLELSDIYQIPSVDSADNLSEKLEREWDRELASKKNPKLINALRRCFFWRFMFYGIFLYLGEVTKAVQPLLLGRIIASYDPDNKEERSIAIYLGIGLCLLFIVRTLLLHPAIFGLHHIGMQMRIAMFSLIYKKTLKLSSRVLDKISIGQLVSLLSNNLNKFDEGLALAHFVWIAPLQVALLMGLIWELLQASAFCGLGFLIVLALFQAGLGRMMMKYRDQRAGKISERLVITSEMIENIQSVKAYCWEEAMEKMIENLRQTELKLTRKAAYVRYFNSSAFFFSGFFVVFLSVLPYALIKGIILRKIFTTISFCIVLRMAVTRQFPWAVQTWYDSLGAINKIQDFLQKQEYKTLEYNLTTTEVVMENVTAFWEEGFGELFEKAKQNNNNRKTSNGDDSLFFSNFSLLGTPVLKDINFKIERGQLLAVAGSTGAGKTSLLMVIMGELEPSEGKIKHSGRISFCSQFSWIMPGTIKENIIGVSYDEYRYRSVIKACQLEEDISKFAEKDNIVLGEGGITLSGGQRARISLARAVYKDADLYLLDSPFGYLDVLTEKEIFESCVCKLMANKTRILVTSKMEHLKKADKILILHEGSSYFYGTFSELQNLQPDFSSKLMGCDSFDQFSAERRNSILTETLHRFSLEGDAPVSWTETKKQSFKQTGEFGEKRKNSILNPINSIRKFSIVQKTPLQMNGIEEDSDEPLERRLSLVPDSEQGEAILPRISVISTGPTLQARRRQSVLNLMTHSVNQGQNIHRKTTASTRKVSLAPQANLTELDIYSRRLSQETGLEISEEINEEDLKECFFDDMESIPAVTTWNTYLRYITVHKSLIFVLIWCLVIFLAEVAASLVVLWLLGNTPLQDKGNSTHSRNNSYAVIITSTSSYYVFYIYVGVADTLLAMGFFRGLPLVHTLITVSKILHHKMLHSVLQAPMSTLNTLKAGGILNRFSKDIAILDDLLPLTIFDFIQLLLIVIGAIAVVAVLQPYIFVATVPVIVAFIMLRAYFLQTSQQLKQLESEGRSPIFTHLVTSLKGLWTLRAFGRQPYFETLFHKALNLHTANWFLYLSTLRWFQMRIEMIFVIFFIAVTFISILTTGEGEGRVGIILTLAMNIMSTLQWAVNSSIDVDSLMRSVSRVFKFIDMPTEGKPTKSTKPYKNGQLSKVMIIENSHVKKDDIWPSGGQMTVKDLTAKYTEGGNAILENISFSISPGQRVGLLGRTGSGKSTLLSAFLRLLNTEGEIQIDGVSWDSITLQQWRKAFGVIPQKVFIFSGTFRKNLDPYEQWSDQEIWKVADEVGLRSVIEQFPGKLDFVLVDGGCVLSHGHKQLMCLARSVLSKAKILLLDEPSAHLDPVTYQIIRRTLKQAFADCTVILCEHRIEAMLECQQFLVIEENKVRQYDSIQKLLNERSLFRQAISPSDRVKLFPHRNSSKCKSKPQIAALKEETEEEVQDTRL

`CN(Cc1ccc(F)cc1)S(=O)(=O)c1cnc(C(=O)NCC(O)C(F)(F)F)c(N)c1` (stereo not shown) [Compound 187, 3-amino-5-[(4-fluorobenzyl)(methyl)sulfamoyl]-N-(3,3,3-trifluoro-2-hydroxypropyl)pyridine-2-carboxamide] was tested, and the “% Activation” value (CFTR G551D mutant) was 71.8%, the EC50 (CFTR G551D mutant) was 705 nM and the “% Activation” value (CFTR ΔF508 mutant) was 99.1%. It also gave an EC50 (CFTR ΔF508 mutant) of 2.8 nM.
For `Nc1cc(S(=O)(=O)c2ccc(C(F)(F)F)cc2)cnc1C(=O)NC[C@@H]1CCOC1` [Compound 102, 3-amino-N-[(3S)-tetrahydrofuran-3-ylmethyl]-5-{[4-(trifluoromethyl)phenyl]sulfonyl}pyridine-2-carboxamide], the “% Activation” value (CFTR G551D mutant) was 73.6%, the EC50 (CFTR G551D mutant) was 1360 nM and the “% Activation” value (CFTR ΔF508 mutant) was 119.0%. It also gave an EC50 (CFTR ΔF508 mutant) of 28.2 nM.
In the case of `CC(C)(CCO)CNC(=O)c1ncc(S(=O)(=O)c2ccc(OC(F)(F)F)cc2)cc1N` [Compound 34, 3-amino-N-(4-hydroxy-2,2-dimethylbutyl)-5-{[4-(trifluoromethoxy)phenyl]sulfonyl}pyridine-2-carboxamide], the “% Activation” value (CFTR G551D mutant) is reported as 70.2%, the EC50 (CFTR G551D mutant) is reported as 1480 nM and the “% Activation” value (CFTR ΔF508 mutant) is reported as 99.0%. For the same compound, the EC50 (CFTR ΔF508 mutant) was 91.1 nM.
For `CC[C@H](NC(=O)c1ncc(S(=O)(=O)c2ccc(OC(F)(F)F)cc2)cc1N)C(N)=O` [Compound 93, 3-amino-N-[(2S)-1-amino-1-oxobutan-2-yl]-5-{[4-(trifluoromethoxy)phenyl]sulfonyl}pyridine-2-carboxamide], the “% Activation” value (CFTR ΔF508 mutant) was 96.5% and the EC50 (CFTR ΔF508 mutant) was 95.5 nM.
In the case of `Nc1cc(S(=O)(=O)c2ccc(OC(F)(F)F)cc2)cnc1C(=O)N[C@@H]1CCOC1` [Compound 128, 3-amino-N-[(3R)-tetrahydrofuran-3-yl]-5-{[4-(trifluoromethoxy)phenyl]sulfonyl}pyridine-2-carboxamide], the “% Activation” value (CFTR G551D mutant) is reported as 41.7%, the EC50 (CFTR G551D mutant) is reported as over 10000 nM and the “% Activation” value (CFTR ΔF508 mutant) is reported as 95.0%. It also gave an EC50 (CFTR ΔF508 mutant) of 85.2 nM.
In the case of `CC(C)NC(=O)CNC(=O)c1ncc(S(=O)(=O)c2ccc(OC(F)(F)F)cc2F)cc1N` [Compound 135, 3-amino-5-{[2-fluoro-4-(trifluoromethoxy)phenyl]sulfonyl}-N-[2-oxo-2-(propan-2-ylamino)ethyl]pyridine-2-carboxamide], the “% Activation” value (CFTR G551D mutant) is reported as 43.5%, the EC50 (CFTR G551D mutant) is reported as 5770 nM and the “% Activation” value (CFTR ΔF508 mutant) is reported as 108.7%. The EC50 (CFTR ΔF508 mutant) was 8.5 nM.
`C[C@H](O)CNC(=O)c1ncc(S(=O)(=O)N2CCCC2CO)cc1N` (mixture of isomers) [Compound 268, 3-amino-5-{[2-(hydroxymethyl)pyrrolidin-1-yl]sulfonyl}-N-[(2S)-2-hydroxypropyl]pyridine-2-carboxamide] was tested, and the “% Activation” value (CFTR G551D mutant) was 0.3%, the “% Activation” value (CFTR ΔF508 mutant) was 37.1% and the EC50 (CFTR ΔF508 mutant) was over 667 nM.
In the case of `COc1ccc(C(CO)NC(=O)c2ncc(S(=O)(=O)c3ccc(OC(F)(F)F)cc3)cc2N)cc1` (stereo not shown) [Compound 96, 3-amino-N-[2-hydroxy-1-(4-methoxyphenyl)ethyl]-5-{[4-(trifluoromethoxy)phenyl]sulfonyl}pyridine-2-carboxamide], the “% Activation” value (CFTR ΔF508 mutant) is reported as 105.0% and the EC50 (CFTR ΔF508 mutant) is reported as 245 nM.
`C[C@H]1CCCN1S(=O)(=O)c1cnc(C(=O)N2CC(O)C2)c(N)c1` [Compound 272, (3-amino-5-{[(2S)-2-methylpyrrolidin-1-yl]sulfonyl}pyridin-2-yl) (3-hydroxyazetidin-1-yl)methanone] was tested, and the “% Activation” value (CFTR G551D mutant) was 2.8%, the EC50 (CFTR G551D mutant) was over 5000 nM and the “% Activation” value (CFTR ΔF508 mutant) was 82.0%. The EC50 (CFTR ΔF508 mutant) was over 334 nM.
`Nc1cc(S(=O)(=O)c2ccccc2)c(C2CC2)nc1C(=O)NCCO` [Compound 260, 3-amino-6-cyclopropyl-N-(2-hydroxyethyl)-5-(phenylsulfonyl)pyridine-2-carboxamide] was tested, and the “% Activation” value (CFTR ΔF508 mutant) was 85.2% and the EC50 (CFTR ΔF508 mutant) was 42.5 nM.
`CC(C)[C@H](NC(=O)c1ncc(S(=O)(=O)c2ccc(OC(F)(F)F)cc2)cc1N)C(N)=O` [Compound 49, 3-amino-N-[(2S)-1-amino-3-methyl-1-oxobutan-2-yl]-5-{[4-(trifluoromethoxy)phenyl]sulfonyl}pyridine-2-carboxamide] was tested, and the “% Activation” value (CFTR ΔF508 mutant) was 132.0% and the EC50 (CFTR ΔF508 mutant) was 125 nM.
In the case of `CCNC(=O)CNC(=O)c1ncc(S(=O)(=O)c2ccc(OC(F)(F)F)cc2)cc1N` [Compound 48, 3-amino-N-[2-(ethylamino)-2-oxoethyl]-5-{[4-(trifluoromethoxy)phenyl]sulfonyl}pyridine-2-carboxamide], the “% Activation” value (CFTR ΔF508 mutant) is reported as 103.0% and the EC50 (CFTR ΔF508 mutant) is reported as 21.1 nM.
In the case of `CNC(=O)[C@@H](NC(=O)c1ncc(S(=O)(=O)c2ccc(OC(F)(F)F)cc2)cc1N)C(C)(C)C` [Compound 47, 3-amino-N-[(2S)-3,3-dimethyl-1-(methylamino)-1-oxobutan-2-yl]-5-{[4-(trifluoromethoxy)phenyl]sulfonyl}pyridine-2-carboxamide], the “% Activation” value (CFTR ΔF508 mutant) is reported as 84.8% and the EC50 (CFTR ΔF508 mutant) is reported as 503 nM.
With `Nc1cc(S(=O)(=O)c2ccc(OC(F)(F)F)cc2)cnc1C(=O)NC(CO)CO` [Compound 44, 3-amino-N-(1,3-dihydroxypropan-2-yl)-5-{[4-(trifluoromethoxy)phenyl]sulfonyl}pyridine-2-carboxamide] the “% Activation” value (CFTR ΔF508 mutant) was 73.9% and the EC50 (CFTR ΔF508 mutant) was 323 nM.
For `COC[C@H](O)CNC(=O)c1ncc(S(=O)(=O)c2ccccc2)cc1N` [Compound 296, 3-amino-N-[(2R)-2-hydroxy-3-methoxypropyl]-5-(phenylsulfonyl)pyridine-2-carboxamide], the “% Activation” value (CFTR ΔF508 mutant) was 82.1% and the EC50 (CFTR ΔF508 mutant) was 40 nM.
With `CC(CC(N)=O)NC(=O)c1ncc(S(=O)(=O)c2ccc(OC(F)(F)F)cc2)cc1N` (stereo not shown) [Compound 55, 3-amino-N-(4-amino-4-oxobutan-2-yl)-5-{[4-(trifluoromethoxy)phenyl]sulfonyl}pyridine-2-carboxamide] the “% Activation” value (CFTR ΔF508 mutant) was 37.6% and the EC50 (CFTR ΔF508 mutant) was over 2000 nM.
In the case of `Cc1ccc(C(CO)NC(=O)c2ncc(S(=O)(=O)c3ccc(OC(F)(F)F)cc3)cc2N)cc1` (stereo not shown) [Compound 41, 3-amino-N-[2-hydroxy-1-(4-methylphenyl)ethyl]-5-{[4-(trifluoromethoxy)phenyl]sulfonyl}pyridine-2-carboxamide], the “% Activation” value (CFTR ΔF508 mutant) is reported as 101.0% and the EC50 (CFTR ΔF508 mutant) is reported as 184 nM.
In the case of `CC(C)C[C@H](NC(=O)c1ncc(S(=O)(=O)c2ccc(OC(F)(F)F)cc2)cc1N)C(N)=O` [Compound 56, N^2-[(3-amino-5-{[4-(trifluoromethoxy)phenyl]sulfonyl}pyridin-2-yl)carbonyl]-L-leucinamide], the “% Activation” value (CFTR ΔF508 mutant) is reported as 99.4% and the EC50 (CFTR ΔF508 mutant) is reported as 369 nM.
For `CCNC(=O)C(C)NC(=O)c1ncc(S(=O)(=O)c2ccc(OC(F)(F)F)cc2)cc1N` (stereo not shown) [Compound 43, 3-amino-N-[1-(ethylamino)-1-oxopropan-2-yl]-5-{[4-(trifluoromethoxy)phenyl]sulfonyl}pyridine-2-carboxamide], the “% Activation” value (CFTR ΔF508 mutant) was 92.6% and the EC50 (CFTR ΔF508 mutant) was 236 nM.
In the case of `Nc1cc(S(=O)(=O)c2ccc(OC(F)(F)F)cc2)cnc1C(=O)NCCCCO` [Compound 45, 3-amino-N-(4-hydroxybutyl)-5-{[4-(trifluoromethoxy)phenyl]sulfonyl}pyridine-2-carboxamide], the “% Activation” value (CFTR ΔF508 mutant) is reported as 93.6% and the EC50 (CFTR ΔF508 mutant) is reported as 83.7 nM.
With `Nc1cc(S(=O)(=O)c2ccc(OC(F)(F)F)cc2)cnc1C(=O)NC1(C(F)(F)F)CCOCC1` [Compound 193, 3-amino-5-{[4-(trifluoromethoxy)phenyl]sulfonyl}-N-[4-(trifluoromethyl)tetrahydro-2H-pyran-4-yl]pyridine-2-carboxamide] the “% Activation” value (CFTR ΔF508 mutant) was 26.7% and the EC50 (CFTR ΔF508 mutant) was over 2000 nM.
